This note sets out measurements from US20080293795A1, “COMBINATION THERAPY WITH PARP INHIBITORS” (ABBOTT LABORATORIES, priority 2006, published 2008).

Structures are written as SMILES.

The test system of one assay is HCT-116 tumors. In words: HCT-116 tumors in nude mice, combination with radiotherapy. It is filed as in vivo. The note with it: combination with radiotherapy (2 Gy/day, 10 doses) vs radiotherapy or compound alone; 6.25, 12.5 or 25 mg/kg/day i.p. OMPs 14 days; FIG. 1. How it is done:
This study was done in nude mice bearing HCT-116 tumors in the leg. Three days (−3) prior to the beginning of radiotherapy, mice were implanted i.p with OMPs delivering A-620223 at 0, 6.25, 12.5, or 25 mg/kg/day for 14 days. Starting day 0 mice received radiation treatment (2 Gy/day) for 10 doses alone or in combination with the 3 different doses of 2-(N-propylpiperidin-4-yl)benzimidazole-4-carboxamide.
Take `CCCN1CCC(c2nc3cccc(C(N)=O)c3[nH]2)CC1` [2-(N-propylpiperidin-4-yl)benzimidazole-4-carboxamide]: the “reduction of tumor size” value is reported as “significant improvement in the reduction of tumor size”.

Tested on in another assay: not listed separately
The assay can be described thus: Valproic acid and radiotherapy (FIG. 6).
Settings: not given
As for `CCCC(CCC)C(=O)O` [valproic acid], the effect on radiotherapy entry is listed as “can enhance the effects of radiotherapy”.

The next assay deals with MX-1 breast carcinoma xenograft. The assay can be described thus: MX-1 breast carcinoma xenograft, combination with carboplatin. It is filed as in vivo, scid mice. The note with it: carboplatin 5, 10, 15 mg/kg/day i.p. day 20, 24, 27; FIG. 4.
Text: This cell line was derived from a person with a poorly differentiated mammary carcinoma.
Data presented in FIG. 4 are mean ±S.E.M. of 8-10 mice per treatment group.
For `N.N.O=C([O-])C1(C(=O)[O-])CCC1.[Pt+2]` [carboplatin], the “tumor inhibition as a single agent” value was “dose-dependent tumor inhibition”.

The same assay, now with this note: carboplatin monotherapy 10 mg/kg/day.
Consider `N.N.O=C([O-])C1(C(=O)[O-])CCC1.[Pt+2]` [carboplatin], for which the “tumor volume course, monotherapy” value is “only delayed tumor growth”.

In the next assay the target is T1, Recombinant Human Poly(ADP-Ribose) Polymerase (PARP) (Homo sapiens, UniProt P09874).
T1 construct: purchased Trevigen, Gaithersburg, Md; host or cells: E. coli
T1 sequence (P09874 whole entry): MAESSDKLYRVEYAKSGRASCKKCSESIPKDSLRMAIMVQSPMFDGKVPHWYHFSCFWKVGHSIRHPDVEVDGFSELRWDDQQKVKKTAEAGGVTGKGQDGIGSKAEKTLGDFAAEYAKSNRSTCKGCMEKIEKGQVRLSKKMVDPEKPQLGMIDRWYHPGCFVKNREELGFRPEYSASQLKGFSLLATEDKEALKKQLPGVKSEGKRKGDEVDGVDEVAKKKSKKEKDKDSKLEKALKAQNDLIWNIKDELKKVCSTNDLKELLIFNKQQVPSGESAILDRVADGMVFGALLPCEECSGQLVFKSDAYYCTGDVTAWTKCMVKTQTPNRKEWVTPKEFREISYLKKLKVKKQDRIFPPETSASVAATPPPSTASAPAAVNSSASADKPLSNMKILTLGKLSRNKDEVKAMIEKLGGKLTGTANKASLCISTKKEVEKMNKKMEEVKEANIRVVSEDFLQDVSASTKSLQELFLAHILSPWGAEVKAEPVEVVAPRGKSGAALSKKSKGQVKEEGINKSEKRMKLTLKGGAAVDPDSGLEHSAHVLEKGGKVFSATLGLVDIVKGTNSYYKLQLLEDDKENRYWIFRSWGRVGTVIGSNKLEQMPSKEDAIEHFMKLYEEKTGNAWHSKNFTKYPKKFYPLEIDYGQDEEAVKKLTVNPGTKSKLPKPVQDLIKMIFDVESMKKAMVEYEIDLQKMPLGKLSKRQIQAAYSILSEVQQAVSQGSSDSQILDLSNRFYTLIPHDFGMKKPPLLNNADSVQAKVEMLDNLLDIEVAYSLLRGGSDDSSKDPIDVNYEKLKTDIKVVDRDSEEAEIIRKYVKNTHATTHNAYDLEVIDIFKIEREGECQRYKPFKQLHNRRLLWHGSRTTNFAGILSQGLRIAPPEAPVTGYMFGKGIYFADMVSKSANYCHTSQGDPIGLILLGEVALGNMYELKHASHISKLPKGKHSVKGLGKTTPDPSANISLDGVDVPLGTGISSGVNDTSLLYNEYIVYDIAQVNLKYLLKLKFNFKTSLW
In words: PARP1 inhibition assay ([3H]-NAD+, biotinylated histone H1, FlashPlate/SPA). The settings on record: from inhibition curves at various substrate concentrations. It is filed as biochemical.
Experimental: Nicotinamide[2,5′,8-3H]adenine dinucleotide and strepavidin SPA beads were purchased from Amersham Biosiences (UK) Recombinant Human Poly(ADP-Ribose) Polymerase (PARP) purified from E. coli and 6-Biotin-17-NAD^+, were purchase from Trevigen, Gaithersburg, Md. NAD^+, Histone, aminobenzamide, 3-amino benzamide and Calf Thymus DNA (dcDNA) were purchased from Sigma, St. Louis, Mo. […] Biotinylated histone H1 was prepared by treating the protein with Sulfo-NHS-LC-Biotin from Pierce Rockford, Ill. […] Streptavidin coated (FlashPlate Plus) microplates were purchased from Perkin Elmer, Boston, Mass.
PARP1 assay was conducted in PARP assay buffer containing 50 mM Tris pH 8.0, 1 mM DTT, 4 mM MgCl2. […] 170 μl of the stopped reaction mixtures were transferred to streptavidin Flash Plates, incubated for 1 hr, and counted using a TopCount microplate scintillation counter.
For the compound `CC(C)CN1CC(C)(c2nc3c(C(N)=O)cccc3[nH]2)C1` [2-(1-isobutyl-3-methylazetidin-3-yl)-1H-benzimidazole-4-carboxamide], the Ki was found to be 5.6 nM.

On to `CC(C)CN1CCC(C)(c2nc3c(C(N)=O)cccc3[nH]2)C1` (stereo not shown) [2-(1-isobutyl-3-methylpyrrolidin-3-yl)-1H-benzimidazole-4-carboxamide], for which the inhibitory constant (Ki) worked out at 3.8 nM.

On to `CC(C)CN1CC(c2nc3c(C(N)=O)cccc3[nH]2)C1` [2-(1-isobutylazetidin-3-yl)-1H-benzimidazole-4-carboxamide], for which the Ki is 14.4 nM. The same measure, in the same setting: next, `CC(C)CN1CCC(c2nc3c(C(N)=O)cccc3[nH]2)C1` (stereo not shown) [2-(1-isobutylpyrrolidin-3-yl)-1H-benzimidazole-4-carboxamide]: 7.4 nM.

Regarding `CC(C)N1CCC1c1nc2c(C(N)=O)cccc2[nH]1` (stereo not shown) [2-(1-isopropylazetidin-2-yl)-1H-benzimidazole-4-carboxamide], the Ki stood at 118 nM.

On to `CC(C)N1CCC(c2nc3c(C(N)=O)cccc3[nH]2)CC1` [2-(1-isopropylpiperidin-4-yl)-1H-benzimidazole-4-carboxamide], for which the Ki was 6 nM.

Consider `CCCN1CC(c2nc3c(C(N)=O)cccc3[nH]2)C1` [2-(1-propylazetidin-3-yl)-1H-benzimidazole-4-carboxamide], for which the Ki turned out to be 14.1 nM. The same measure, in the same setting: to `CCCN1CCC(c2nc3c(C(N)=O)cccc3[nH]2)C1` (stereo not shown) [2-(1-propylpyrrolidin-3-yl)-1H-benzimidazole-4-carboxamide] belongs 8.1 nM; to `NC(=O)c1cccc2[nH]c(C3CN(C4CCOCC4)C3)nc12` [2-(1-tetrahydro-2H-pyran-4-ylazetidin-3-yl)-1H-benzimidazole-4-carboxamide], 45.6 nM.

Take `NC(=O)c1cccc2[nH]c(C3CCN(C4CCOCC4)C3)nc12` (stereo not shown) [2-(1-tetrahydro-2H-pyran-4-ylpyrrolidin-3-yl)-1H-benzimidazole-4-carboxamide]: the Ki stood at 8.2 nM.

Take `CCCN1CCCC1(C)c1nc2c(C(N)=O)cccc2[nH]1` (stereo not shown) [2-(2-methyl-1-propylpyrrolidin-2-yl)-1H-benzimidazole-4-carboxamide]: the Ki came out at 18.7 nM. Still for that read-out and setting: to `CCCN1CC(C)(c2nc3c(C(N)=O)cccc3[nH]2)C1` [2-(3-methyl-1-propylazetidin-3-yl)-1H-benzimidazole-4-carboxamide] belongs 6.9 nM; to `CCCN1CCC(C)(c2nc3c(C(N)=O)cccc3[nH]2)C1` (stereo not shown) [2-(3-methyl-1-propylpyrrolidin-3-yl)-1H-benzimidazole-4-carboxamide], 4.2 nM; to `CC1(c2nc3c(C(N)=O)cccc3[nH]2)CN(C2CCOCC2)C1` [2-(3-methyl-1-tetrahydro-2H-pyran-4-ylazetidin-3-yl)-1H-benzimidazole-4-carboxamide], 12.7 nM. Same read-out and setting: to `CC1(c2nc3c(C(N)=O)cccc3[nH]2)CCN(C2CCOCC2)C1` (stereo not shown) [2-(3-methyl-1-tetrahydro-2H-pyran-4-ylpyrrolidin-3-yl)-1H-benzimidazole-4-carboxamide] belongs 7.2 nM; to `CCCN1CCC(C)(c2nc3c(C(N)=O)cccc3[nH]2)CC1` [2-(4-methyl-1-propylpiperidin-4-yl)-1H-benzimidazole-4-carboxamide], 13.5 nM. On the same count and under the same terms, to `CCCN1CCC(c2nc3cccc(C(N)=O)c3[nH]2)CC1` [2-(N-propylpiperidin-4-yl)benzimidazole-4-carboxamide] belongs 8.6 nM. With `CC(CCc1ccccc1)N1CCC(c2nc3c(C(N)=O)cccc3[nH]2)C1` (stereo not shown) [2-[1-(1-methyl-3-phenylpropyl)pyrrolidin-3-yl]-1H-benzimidazole-4-carboxamide], the Ki came to 13.2 nM. The same measure, in the same setting: to `CC1(c2nc3c(C(N)=O)cccc3[nH]2)CN(CC2CC2)C1` [2-[1-(cyclopropylmethyl)-3-methylazetidin-3-yl]-1H-benzimidazole-4-carboxamide] belongs 8 nM. Same read-out and setting: to `CC1(c2nc3c(C(N)=O)cccc3[nH]2)CCN(CC2CC2)C1` (stereo not shown) [2-[1-(cyclopropylmethyl)-3-methylpyrrolidin-3-yl]-1H-benzimidazole-4-carboxamide] belongs 5 nM; to `NC(=O)c1cccc2[nH]c(C3CN(CC4CC4)C3)nc12` [2-[1-(cyclopropylmethyl)azetidin-3-yl]-1H-benzimidazole-4-carboxamide], 19 nM; to `NC(=O)c1cccc2[nH]c(C3CCN(CC4CC4)C3)nc12` (stereo not shown) [2-[1-(cyclopropylmethyl)pyrrolidin-3-yl]-1H-benzimidazole-4-carboxamide], 5.2 nM.

As to `NC(=O)c1cccc2[nH]c(C3CCN(Cc4ccncc4)C3)nc12` (stereo not shown) [2-[1-(pyridin-4-ylmethyl)pyrrolidin-3-yl]-1H-benzimidazole-4-carboxamide], the Ki turned out to be 14.2 nM. Still for that read-out and setting: to `CC(CCc1ccccc1)N1CCC(C)(c2nc3c(C(N)=O)cccc3[nH]2)C1` (stereo not shown) [2-[3-methyl-1-(1-methyl-3-phenylpropyl)pyrrolidin-3-yl]-1H-benzimidazole-4-carboxamide] belongs 12 nM; to `CC1(c2nc3c(C(N)=O)cccc3[nH]2)CCN(Cc2ccncc2)C1` (stereo not shown) [2-[3-methyl-1-(pyridin-4-ylmethyl)pyrrolidin-3-yl]-1H-benzimidazole-4-carboxamide], 8.9 nM; to `NC(=O)c1cccc2[nH]c([C@H]3CCCN3C3CCC3)nc12` [2-[(2R)-1-cyclobutylpyrrolidin-2-yl]-1H-benzimidazole-4-carboxamide], 142 nM. On the same count and under the same terms, to `CC(C)N1CCC[C@@H]1c1nc2cccc(C(N)=O)c2[nH]1` [2-[(2R)-1-isopropylpyrrolidin-2-yl]-1H-benzimidazole-4-carboxamide] belongs 12.8 nM; to `CCCN1CCC[C@@H]1c1nc2c(C(N)=O)cccc2[nH]1` [2-[(2R)-1-propylpyrrolidin-2-yl]-1H-benzimidazole-4-carboxamide], 146 nM; to `NC(=O)c1cccc2[nH]c([C@@H]3CCCN3C3CCC3)nc12` [2-[(2S)-1-cyclobutylpyrrolidin-2-yl]-1H-benzimidazole-4-carboxamide], 338 nM. Same read-out and setting: next, `CCN1CCC[C@H]1c1nc2c(C(N)=O)cccc2[nH]1` [2-[(2S)-1-ethylpyrrolidin-2-yl]-1H-benzimidazole-4-carboxamide]: 49 nM. As for `CC(C)N1CCC[C@H]1c1nc2c(C(N)=O)cccc2[nH]1` [2-[(2S)-1-isopropylpyrrolidin-2-yl]-1H-benzimidazole-4-carboxamide], the Ki came out at 19.3 nM. Still for that read-out and setting: to `CCCN1CCC[C@H]1c1nc2c(C(N)=O)cccc2[nH]1` [2-[(2S)-1-propylpyrrolidin-2-yl]-1H-benzimidazole-4-carboxamide] belongs 129 nM; to `CN(C)S(=O)(=O)N1CC(C)(c2nc3c(C(N)=O)cccc3[nH]2)C1` [2-{1-[(dimethylamino)sulfonyl]-3-methylazetidin-3-yl}-1H-benzimidazole-4-carboxamide], 7 nM; to `CN(C)S(=O)(=O)N1CCC(C)(c2nc3c(C(N)=O)cccc3[nH]2)CC1` [2-{1-[(dimethylamino)sulfonyl]-4-methylpiperidin-4-yl}-1H-benzimidazole-4-carboxamide], 8.8 nM.

With `CN(C)S(=O)(=O)N1CC(c2nc3c(C(N)=O)cccc3[nH]2)C1` [2-{1-[(dimethylamino)sulfonyl]azetidin-3-yl}-1H-benzimidazole-4-carboxamide], the Ki amounted to 16 nM. Same read-out and setting: to `CN(C)S(=O)(=O)N1CCC(c2nc3c(C(N)=O)cccc3[nH]2)CC1` [2-{1-[(dimethylamino)sulfonyl]piperidin-4-yl}-1H-benzimidazole-4-carboxamide] belongs 31.1 nM.
